From patent US10239830B2, “Benzenesulfonamide upregulators of NPC1 for Neimann-Pick disease and other lysosomal storage disorders” (ICAHN SCHOOL OF MEDICINE AT MOUNT SINAI, priority 2015, dated 2019)
Blank lines part the entries; values can stand above or below the compound they belong to.

What was measured:
Rab9 promoter = experiment: qHTS of Rab9 Promoter-Luciferase Reporter Gene Assay (firefly, Huh7); type: cell-based, human; conditions: 24 hours
Procedure: qHTS of Rab9 Promoter-Luciferase Reporter Gene Assay. For the primary screen, a promoter assay was developed by engineering a vector using approximately 1.5 kb of the Rab9 promoter to drive the expression of the firefly luciferase reporter gene. Thus, Rab9 promoter activation results in luciferase expression. This vector was used to generate Huh7 cell lines stably expressing the Rab9-luciferase vector. […] Cells were plated for assays in OPTI-MEM I reduced-serum medium supplemented with 10% FBS at 1,500 cells/well in 5 μL in 1,536-well white opaque plates with 23 nL/well of test compound in DMSO solution. The assay plates were incubated at 37° C. for 24 hours, after which 3 μL/well BriteLite plus luciferase detection reagent mixture (Perkin Elmer) was added. Luminescence signal was measured in a ViewLux plate reader (Perkin Elmer) after a 10 minute incubation at room temperature.

NPC1 promoter [1] = experiment: qHTS of NPC1 Promoter-Luciferase Reporter Gene Assay (firefly, Huh7); type: cell-based, human; conditions: 24 hours
Procedure: qHTS of NPC1 Promoter-Luciferase Reporter Gene Assay. For the second primary screen, a promoter assay was developed by engineering a vector using approximately 1.5 kb of the NPC1 promoter to drive the expression of the firefly luciferase reporter gene. Thus, NPC1 promoter activation results in luciferase expression. This vector was used to generate Huh7 cell lines stably expressing the NPC1-luciferase vector. […] Cells were plated for assays in OPTI-MEM I reduced-serum medium supplemented with 10% FBS at 1,500 cells/well in 5 μL in 1,536-well white opaque plates with 23 nL/well of test compound in DMSO solution. The assay plates were incubated at 37° C. for 24 hours, after which 3 μL/well BriteLite plus luciferase detection reagent mixture (Perkin Elmer) was added. Luminescence signal was measured in a ViewLux plate reader (Perkin Elmer) after a 10 minute incubation at room temperature.

NPC3 cells = experiment: Lactosyl Ceramide (BODIPY-LacCer) staining to monitor sphingolipid transport; type: cell-based, human; conditions: for correction of lipid transport block (accumulation of Bodipy LacCer probe to the Golgi): compared to untreated NPC3 cells
Procedure: Lactosyl Ceramide staining to monitor sphingolipid transport in NPC cells. The effect of each compound on the sphingolipid transport defect seen in NPC1 fibroblasts was assessed in cells treated with compound for 48-72 hours using the fluorescent probe BODIPY-lactosylceramide (LacCer). […] This mislocalization can be corrected and Golgi localization restored by expression of Wt NPC1 protein or Rab9, thus providing a dynamic view of the endocytic transport pathway. Cells were incubated with 5 μM BODIPY-LacCer/BSA for 45 min at 37° C. in culture medium containing 1% FBS, washed, and further incubated for 1 h at 37° C. in medium containing 1% FBS. Fluorescent lipid present at the plasma membrane was removed by back-exchange with 5% fatty acid-free BSA. Cells were fixed with 3% paraformaldehyde for 20 min at RT and then visualized on a Nikon Eclipse microscope fitted with a charge-coupled-device camera. Images were acquired with MetaVue software and then deconvoluted using AutoDeblur software.
Unlike the VTB assay above that detects the static levels of lipid storage, the Bodipy LacCer probe allows for detection of the recovery/correction of lipid transport from the plasma membrane to the Golgi apparatus as described above. This dynamic assay can be used to determine the level of correction various compounds have on the NPC transport block.

Wild type (Wt) cells = experiment: VTB-GL-3 assay, wild type cells; type: cell-based, human; conditions: Wt cells treated for 3 days
[2] = test system: NPC1 patient cell fibroblasts; experiment: Filipin Staining Assay to Detect Free Cholesterol Accumulation in NPC Cells; type: cell-based, human; conditions: filipin fluorescence relative to untreated cells
Procedure: Filipin Staining Assay to Detect Free Cholesterol Accumulation in NPC Cells. Compounds were evaluated for their effect on the NPC1 cellular phenotype by staining treated NPC1 patient cell fibroblasts with filipin, which recognizes free unesterified cholesterol. Compounds that upregulate the NPC1 promoter were expected to reduce the filipin staining in treated NPC1 fibroblasts compared to untreated NPC1 fibroblasts, indicating clearance of unesterified cholesterol. Conversely, inhibitors of the NPC1 promoter were expected to increase filipin staining in wild-type fibroblasts, thus indicating the emergence of an NPC-like phenotype. Briefly, cells were grown in lipoprotein-deficient medium for 3-4 days, and then the medium was replaced and supplemented with test compound plus 50 μg/mL low-density lipoprotein (LDL). After 24-48 hours, cells were stained with filipin and scored under the 40× magnification filter using the integrated morphometry function in the Metavue program (Molecular Devices). Test compounds that decreased the intensity of filipin fluorescence to less than 50% of untreated cells are considered of particular interest.

Renilla Enzyme = biological target: T1, Renilla Enzyme (Renilla reniformis, UniProt P27652); experiment: Biochemical Renilla Luciferase Counter assay
T1 sequence (P27652 1-311): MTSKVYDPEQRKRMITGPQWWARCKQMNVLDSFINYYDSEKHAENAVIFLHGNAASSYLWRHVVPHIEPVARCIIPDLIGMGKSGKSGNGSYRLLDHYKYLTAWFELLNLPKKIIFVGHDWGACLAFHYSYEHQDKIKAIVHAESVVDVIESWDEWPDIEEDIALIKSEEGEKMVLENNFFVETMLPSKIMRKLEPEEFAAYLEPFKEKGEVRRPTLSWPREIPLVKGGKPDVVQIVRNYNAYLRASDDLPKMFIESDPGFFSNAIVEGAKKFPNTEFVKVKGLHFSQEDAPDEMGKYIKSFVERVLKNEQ
Procedure: Biochemical Renilla Luciferase Counter assay. An orthogonal assay was run to exclude any compounds that promoted renilla luciferase signal by stabilizing the renilla protein. Briefly, 3 μL of 0.01 mM D-Luciferin and 0.01 mM ATP was dispensed into a 1536 well white, solid bottom plate. Through pinning, 23 nL of compound was added; PTC124 (3-[5-(2-Fluorophenyl)-1,2,4-oxadiazol-3-yl]benzoic acid) served as the control. After a 10 min incubation at room temperature, 1 μL of Luciferase was added, after which the plate was immediately read on the ViewLux for a luminescent read-out.

NPC1 promoter [3] = experiment: Confirmation Assay of NPC1 Promoter Activators: Renilla Luciferase (Huh7); type: cell-based, human; conditions: 24 hours
Procedure: Confirmation Assay of NPC1 Promoter Activators: Renilla Luciferase. The confirmation assay was carried out using an assay in which the NPC1 promoter drives the expression of a different luciferase protein from the one used in the primary screen. The NPC1 promoter was cloned in front of the renilla luciferase reporter gene. NPC1 promoter activation results in renilla luciferase expression. This vector was used to generate Huh7 cell lines stably expressing the NPC1-renilla luciferase vector. These cells were propagated and maintained in medium containing RPMI-1640 supplemented with 10% FBS, 2 mM L-glutamine, and 50 μg/mL penicillin/streptomycin. Cells were plated for assays in OPTI-MEM I reduced-serum medium supplemented with 10% FBS at 1,500 cells/well in 5 μL in 1,536-well white opaque plates and then 23 nL/well of compound in DMSO solution were added through pin transfer. The assay plates were incubated at 37° C. for 24 hours. The Amplite luciferase reporter gene assay kit was purchased from ABD Bioquest and prepared/stored according to manufacturer's recommendations. Luminescence signal was measured in a ViewLux plate reader (Perkin Elmer) after a 10 minute incubation at room temperature.

Structure (SMILES): CC(=O)c1c(C)[nH]c(C(=O)Nc2cccc(S(=O)(=O)N(C)C)c2)c1C [Example 1]
EC50 (Rab9 promoter): 6.1 µM
Rab9 Eff. (Rab9 promoter): 148%
EC50 (NPC1 promoter [1]): 6.6 to 7.7 µM
NPC1 Eff. (NPC1 promoter [1]): 68-83%
percent Golgi location (NPC3 cells; 1 μM): reduces percent Golgi location by a statistically significant amount
correction of lipid transport block (accumulation of Bodipy LacCer probe to the Golgi) (NPC3 cells): correction of their block
effect on storage of lipid material (VTB staining) in Wt cells (Wild type (Wt) cells): no effect on Wt cells
% storage at 0.1 μM [2]: 40%
% storage at 1 μM [2]: 22%

Structure (SMILES): COc1ccc(NC(=O)c2[nH]c(C)c(C(C)=O)c2C)cc1S(=O)(=O)Nc1ccc(Br)cc1 [Example 36]
EC50 (NPC1 promoter [1]): 0.7 µM
NPC1 Eff. (NPC1 promoter [1]): 150%
percent Golgi location (NPC3 cells; 10 or 100 nM): reduces percent Golgi location by a statistically significant amount
correction of lipid transport block (accumulation of Bodipy LacCer probe to the Golgi) (NPC3 cells): correction of their block
effect on storage of lipid material (VTB staining) in Wt cells (Wild type (Wt) cells): no effect on Wt cells
% storage at 0.1 μM [2]: 50%
% storage at 1 μM [2]: 25%

Renilla Enzyme IC50 (Renilla Enzyme): Inactive
EC50 (NPC1 promoter [3]): 2.7 µM
NPC1-renilla Eff. (NPC1 promoter [3]): 80%
Structure (SMILES): COc1ccc(NC(=O)C23CC4CC(CC(C4)C2)C3)cc1S(=O)(=O)Nc1ccc(Br)cc1 [Example 47]
% storage at 1 μM [2]: 33%
